Test results published in patent US20200001120A1, “APPARATUS, METHOD, AND USE FOR ULTRASOUND MEDIATED MICROBUBBLE DELIVERY OF PHARMACEUTICAL COMPOSITIONS” (priority 2017, published 2020).

Test system: E. coli
Assay: E. coli pneumonia in mice: gentamicin with or without USMB, cfu in lung homogenates
Assay type: in vivo, C57BL/6 mice
Description: To establish whether USMB enhances antibiotic delivery to the injured lung, gentamicin (1.5 mg/kg) was administered to mice by intraperitoneal injection 6 hours after infection with E. coli to determine whether USMB conferred any additional benefit to treatment with antibiotics or microbubbles alone. This relatively low dose of gentamicin was chosen as it is relatively slow and achieves incomplete clearance of lung pathogens and thus allows any benefit of USMB to become apparent. In humans, high doses of gentamicin are known to cause nephro- and ototoxicity, making it contraindicated for human use at high doses.
C57BL/6 mice were infected intratracheally with 1×10^7 colony forming units (cfu) of E. coli and received 1.5 mg/kg of gentamicin by intraperitoneal injection 6 hours later. Thirty minutes later, the mice were then injected intravenously with 1×10^9 microbubbles (Definity™) by tail vein. (Definity™ is an approved microbubble preparation that is used for diagnostic imaging in intensive care unit patients.) This was followed by thoracic ultrasound administration for five minutes. The ultrasound treatment conditions were the same as those used in Example 1. Eighteen hours later, mice were euthanized by cervical dislocation and lungs were homogenized for cfu. Lung homogenates were plated on agar to measure bacterial growth. Each experiment was repeated twice with 3 mice per group. Control mice received microbubbles and antibiotic without ultrasound (MB+ antibiotics) or antibiotics alone (PBS and antibiotics). Other control mice received no antibiotics. […] Data are mean plus SEM (SD if <3 mice) with each dot representing a separate animal. Note the >1 log-fold reduction in cfu in the mice receiving USMB with antibiotics (left-most group) compared to microbubbles/antibiotics alone. An ELISA performed on lung homogenates and plasma measures gentamicin levels.

## gentamicin
Gentamicin 1.5 mg/kg i.p. plus USMB vs microbubbles/antibiotics alone, 18 hours later
  reduction in cfu in lung homogenates: > 1 log-fold
Gentamicin 1.5 mg/kg i.p. plus USMB, both replicates
  reduction in bacterial growth caused by USMB: 10 fold
Gentamicin alone, 1.5 mg/kg i.p.
  bacterial colony forming units (cfu): reduction
Microbubbles and antibiotics without ultrasound
  benefit over antibiotics alone: no benefit
